2 compounds from US11685726B2, “Pharmaceutical compositions of 6-(2-(2H-tetrazol-5-yl)ethyl)-6-fluorodecahydroisoquinoline-3-carboxylic acid and ester derivatives thereof” (Sea Pharmaceuticals LLC, priority 2020, dated 2023) can be followed below.

Data set [1] is described as follows: LCMS bioanalysis of compound levels in rat samples (plasma, CSF, brain) after administration. The data set is classed as in vivo. Particulars: lower limit of quantification 1 ng/ml. From the text: Measurement of Compound 1 or Compound 2 from rat samples (plasma, cerebral spinal fluid “CSF” or brain homogenate) was done by high resolution using a sensitive LCMS method.
Extracts of biological samples (either organic solvent precipitated or organic solvent extracted i. plasma or ii. CSF or iii. homogenates of whole brains from Compound 1 or Compound 2 treated rats) were subjected to LCMS and were compared to freshly prepared standard curves on exactly the same LCMS instrument. The standard curves were prepared of Compound 1 or Compound 2 at known concentrations dispensed (spiked) into rat plasma (supplied by Bioivt formerly Bioreclamation, Cat. No. RAT00PLK2Y2N, Bioivt, Hicksville N.Y. USA) as Sprague Dawley male rat plasma prepared by collection of blood into potassium-EDTA “K2-EDTA” tubes, centrifuged and stored at −80 C until usage). […] The lower limit of quantification of Compound 1 or Compound 2 based on the conditions used was 1 ng/ml and the standard curve was linear to 5,000 ng/ml. […]
Acute administration of test compound 1 or test compound 2 by routes described (either PO, SC or IV) was done to rats and samples collected at the timepoints described for subsequent extraction, dissolution and quantitative LCMS bioanalysis. […]

Data set [2] relates to 6 Hz psychomotor seizure model in mice. Nature of the data set: 6 Hz psychomotor seizure model in mice. Particulars: 0.5 hours, SPHA. The class given is in vivo, mouse. From the text:
Adult male Carworth Farms (CF-1) mice (25-35 g) or young male Sprague-Dawley (SD) rats (100-150 g) were obtained from Charles River Laboratories Inc (Wilmington Mass. USA). CF1 mice were typically used for the 6 Hz psychomotor seizure model (6 Hz model described in the section below) but could also be used for the Maximal electroshock seizure (MES) model if performed in mice (Maximal electroshock seizure model described in the section below). SD rats were typically used for MES model but could also be used for 6 Hz psychomotor model if performed in rats. Animals were allowed free access to food and water, except during testing periods. After delivery from supplier lab to the in vivo pharmacology testing lab, animals were allowed sufficient time to acclimate to housing conditions prior to testing. Animals were housed in plastic cages in rooms with controlled humidity, ventilation, and lighting (12 hours lights on and 12 hours darkness). The animals were housed and fed in a manner consistent with the recommendations in the “Guide for Care and Use of Laboratory Animals” (National Research Council), and in accordance with guidelines set by an Institutional Animal Care and Use Committee (IACUC). Animal experiments were conducted in a manner consistent with Animal Research: Reporting of In Vivo Experiments (ARRIVE) guidelines (UK) and were approved by an IACUC. Test compounds or respective vehicle (placebo) were administered using an optimal fluid volume-to-body fluid ratio. Solutions or suspensions of test compounds, reference compounds or vehicles were administered to mice or rats in a volume of 0.01 mL/g body weight (mice) or 0.004 mL/g body weight (rats) by subcutaneous (s.c.) injection, intraperitoneal (i.p.) injection or by oral gavage (p.o.) unless otherwise indicated. Reference drug Levetiracetam or vehicle was administered by intraperitoneal (i.p.) injection.
Mice are given a topical anesthetic on the cornea of each eye prior to placement of corneal electrodes. 6 Hz psychomotor seizures were induced in mice (usually 8 animals per group) using electrical stimulation via corneal electrodes (6 Hz, 0.2 millisecond rectangular pulse, 3 second duration at 22 mA using a Grass 48 stimulator instrument as described in Barton M E et al 2001. Epilepsy Res 47:217-227). Prior to placement of corneal electrodes for electrical stimulation 0.5% tetracaine in saline (Sigma) drops were applied to each eye. Seizures and behaviors that arise from the electrical stimulus in the 6 Hz model include a minor clonic seizure phase followed by stereotyped automatistic behaviors including stun, forelimb clonus, twitching of the vibrissae and Straub-tail. […] Animals not presenting any of these behaviors were considered “protected” from seizures. This serves as a screen for in vivo pharmacological activity of test articles or reference anti-epilepsy drugs and defines anti-seizure activity as shown in several publications [Barton M E et al. 2001. Epilepsy Res. 47:217-227; Barton M E et al. 2003 Epilepsy Res. 56:17-26; Brown W C et al. 1953. J Pharmacol Exp Ther 107:273-283. Metcalf C S et al. 2017a. Epilepsia 58:484-493.; Metcalf C S et al. 2017c. Epilepsia 58:239-246.
Unless otherwise indicated pretreatment times of mice or rats were typically 0.5 hours for respective vehicle, Compounds 1, 3, 4, 6 or other compounds administered by subcutaneous or intraperitoneal route (unless other times indicated). A pretreatment time of 1 hour was used for Compounds 3, 4, 6 or other compounds administered by oral route unless other times indicated. Test compounds or respective vehicles were tested in some cases at other pretreatment times as indicated. A median effective dose (ED50) and 95% confidence interval (CI) were calculated using a Prism (Graphpad software). […]

SMILES strings stand for the structures.

As for `O=C(O)[C@@H]1C[C@H]2CC(F)(CCc3nnn[nH]3)CC[C@H]2CN1` (stereo in doubt) [Compound 2, (3S,4aS,6R,8aR)-6-fluoro-6-[2-(1H-1,2,3,4-tetrazol-5-yl)ethyl]-decahydroisoquinoline-3-carboxylic acid], the “compound levels in vivo by LCMS” value in data set [1] is on record as “below limit of detection”.
For `O=C(O)[C@@H]1C[C@H]2C[C@@](F)(CCc3nnn[nH]3)CC[C@H]2CN1` [Compound 1, (3S,4aS,6S,8aR)-6-fluoro-6-[2-(1H-1,2,3,4-tetrazol-5-yl)ethyl]-decahydroisoquinoline-3-carboxylic acid], the “6 Hz Test Results (# mice protected from seizure/# mice tested)” value is given as 1/8 in data set [2] (0.3 mg/kg s.c.); 3/8 in data set [2] (0.6 mg/kg s.c.); 3/8 in data set [2] (1 mg/kg s.c.); 5/8 in data set [2] (3 mg/kg s.c.); 7/8 in data set [2] (6 mg/kg s.c.); 8/8 in data set [2] (10 mg/kg s.c.).
